Measured values reported in US20190225650A1, “PEPTIDOMIMETIC MACROCYCLES AND USE THEREOF IN REGULATING HIF1ALPHA” (AILERON THERAPEUTICS, INC., priority 2013, published 2019).
Bridge positions count the residues as written; N and C are the ends. Square brackets hold non-standard residues; d marks the D form. Peptide text beside a SMILES is read from it. S5 = C=CCCC[C@](C)(N)C(=O)O; Nle = CCCC[C@H](N)C(=O)O

Test system: HRE-bla ME-180 cells
Experiment: Reporter gene assay (HRE-bla ME-180 HIF reporter, GeneBLAzer)
Assay type: cell-based, human
Conditions: for EC50: 24 hour normoxia
Method: The following reagents were used:
• DMEM+GutaMAX: (#10569044, Invitrogen) • Black clear bottom plates: (#3603, Costar) • HRE-bla-ME-180 cell line: (#K1644, Invitrogen) • Gene-Blazer reagent & protocol: (#K1096, Invitrogen) • Plate reader: Biotek Synergy 2 • Chetomin: (C9623, Sigma)
4 hours prior to experiment: HRE-bla ME-180 cells were seeded at a density of 20,000 cells/well in a volume of 180 μl in black clear bottom 96-well plates. 180 μl of assay medium was added to the cell-free control wells. Incubation was conducted at 37° C., 5% CO2 for 4 hours.
Diluted chetomin was used as a positive control. Chetomin was diluted in 100% DMSO to a 10 mM stock concentration. A 1 mM stock of chetomin was prepared in 100% DMSO. Then the 1 mM chetomin stock was serially diluted in 1:4 in 100% DMSO. Finally, 50, 12.5, 3.125, 0.78, 0.2, 0.05 μM stock of chetomin in 5% DMSO/water were prepared by adding 114 μL water+6 μL chetomin in DMSO.
Test peptides were diluted before use. The test peptides were diluted in 100% DMSO to a 10 mM stock concentration. Then each 10 mM peptide stock was diluted in 1:3 in 100% DMSO. Finally, 300, 100, 33.3, 11.1, 3.7, 1.2 μM stock of each peptide in 5% DMSO/water were prepared by adding 129.2 μL water+4 μL peptide in DMSO.
20 μl of peptide, chetomin dilution, or DMSO/water control were added to the appropriate wells of a plate to achieve 200 μL final volumes in 0.3% DMSO/media. The plate was first incubated for 18-20 hours in normoxia incubator (37° C. in humidified 5% CO2, 20% O2 atmosphere). Then the plate was transferred to hypoxia incubator for 24 hours (37° C. in humidified 5% CO2, 1% O2 atmosphere)
6× LiveBLAzer™-FRET B/G (CCF4-AM) Substrate Mixture was prepared according to CellSensor™ HRE-bla ME-180 Cell-based Assay Protocol (Invitrogen) and added into each well. Solution A (CCF4-AM) was reconstituted in DMSO to a working concentration of 1 mM, divided in aliquots, and stored at −20° C. The 6× LiveBLAzer-FRET B/G (CCF4-AM) Substrate mixture was prepared by mixing 6 μl of Solution A, 60 μl of Solution B, and 934 μl Solution C.
The plates were removed from incubator and equilibrated to RT for a few minutes. Then 20 μl of 6× Substrate mixture was added to each well. The plates were then incubated at room temperature for 3 hr in the dark and read at 409 Ex/460Em and 409Ex/530Em using the “GeneBlazer-Tungsten with export” program on the Synergy 2.
The average percentage of maximum inhibition was obtained by comparing the peptide treated cells (30 μM) to DMSO vehicle control treated cells. The results are shown in the columns “ME-180 HIF Reporter EC50 (μM) −24 hr normoxia” and “18 h Avg % max inhibition at top conc (HIF Rptr-24 hrsnormoxia) (μM)” of Table 6.

Row | Structure (SMILES) | 18 h Avg % max inhibition at top conc (HIF Rptr-24 hrs normoxia) (μM) | EC50
1 | CC[C@H](C)[C@H](NC(=O)[C@H](CCCNC(=N)N)NC(=O)[C@H](CC(=O)O)NC(=O)[C@H](CC(C)C)NC(=O)CNC(=O)[C@H](CCSC)NC(=O)[C@]1(C)CCCC=CCCC[C@](C)(NC(=O)[C@H](CCSC)NC(=O)[C@H](CC(C)C)NC(=O)[C@@H](NC(=O)[C@H](CCC(=O)O)NC(C)=O)C(C)C)C(=O)N[C@@H](CC(C)C)C(=O)N[C@@H](C(C)C)C(=O)N[C@@H]([C@@H](C)CC)C(=O)N1)C(=O)N[C@@H](CCCCN)C(=O)N[C@@H](CCC(=O)O)C(=O)N[C@@H](CC(C)C)C(=O)N1CCC[C@H]1C(=O)N[C@@H](CCC(=O)O)C(=O)N[C@@H](CC(C)C)C(=O)N[C@@H](Cc1c[nH]c2ccccc12)C(=O)N[C@@H](CC(C)C)C(N)=O [SP-89] (Ac-EVLM[S5]LVI[S5]MGLDRIKELPELWL-NH2; staple 5-9) | +++ (≤25 but <50: +++) | 5 to 15 µM
2 | CCCC[C@H](NC(=O)[C@H](CC(C)C)NC(=O)[C@@H](NC(=O)[C@H](CCC(=O)O)NC(=O)[C@H](CCC(=O)O)NC(=O)[C@H](CC(=O)O)NC(=O)[C@@H](NC(=O)[C@H](Cc1ccccc1)NC(C)=O)[C@@H](C)CC)C(C)C)C(=O)N[C@@]1(C)CCCC=CCCC[C@@](C)(C(=O)N[C@@H](CCCC)C(=O)N[C@@H](C)C(=O)N[C@@H](CC(C)C)C(=O)N[C@@H](CC(=O)O)C(=O)N[C@@H](CCCNC(=N)N)C(=O)N[C@@H](CCC(=O)O)C(N)=O)NC(=O)[C@H]([C@@H](C)CC)NC(=O)[C@H](C(C)C)NC(=O)[C@H](CC(C)C)NC1=O [SP-42] (Ac-FIDEEVL[Nle][S5]LVI[S5][Nle]ALDRE-NH2; staple 9-13) | ++ (≤10 but <25: ++) | > 30 µM
3 | CCCC[C@H](NC(=O)[C@H](CC(C)C)NC(=O)[C@@H](NC(=O)[C@H](CCC(=O)O)NC(=O)[C@H](CCC(=O)O)NC(=O)[C@H](CC(=O)O)NC(=O)[C@@H](NC(=O)[C@H](Cc1ccccc1)NC(C)=O)[C@@H](C)CC)C(C)C)C(=O)N[C@@]1(C)CCCC=CCCC[C@@](C)(C(=O)N[C@@H](CCCC)C(=O)N[C@@H](C)C(=O)N[C@@H](CC(C)C)C(=O)N[C@@H](CC(=O)O)C(=O)N[C@@H](CCCNC(=N)N)C(=O)N[C@H](C(N)=O)[C@@H](C)CC)NC(=O)[C@H]([C@@H](C)CC)NC(=O)[C@H](CO)NC(=O)[C@H](CC(C)C)NC1=O [SP-52] (Ac-FIDEEVL[Nle][S5]LSI[S5][Nle]ALDRI-NH2; staple 9-13) | ++++ (≥50: ++++) | 15 to 30 µM
4 | CCCC[C@H](NC(=O)[C@H](C)NC(=O)[C@@H](NC(=O)[C@H](CCC(=O)O)NC(=O)[C@H](CCC(=O)O)NC(=O)[C@H](CC(=O)O)NC(=O)[C@@H](NC(=O)[C@H](Cc1ccccc1)NC(C)=O)[C@@H](C)CC)C(C)C)C(=O)N[C@@]1(C)CCCC=CCCC[C@@](C)(C(=O)N[C@@H](CCCC)C(=O)N[C@@H](C)C(=O)N[C@@H](CC(C)C)C(=O)N[C@@H](CC(=O)O)C(=O)N[C@@H](CCCNC(=N)N)C(=O)N[C@H](C(N)=O)[C@@H](C)CC)NC(=O)[C@H]([C@@H](C)CC)NC(=O)[C@H](C(C)C)NC(=O)[C@H](CC(C)C)NC1=O [SP-15] (Ac-FIDEEVA[Nle][S5]LVI[S5][Nle]ALDRI-NH2; staple 9-13) | ++++ (≥50: ++++) | ≤ 5 µM
5 | CC[C@H](C)[C@H](NC(=O)[C@H](Cc1ccccc1)NC(C)=O)C(=O)N[C@@H](CC(=O)O)C(=O)N[C@@H](CCC(=O)O)C(=O)N[C@@H](CCC(=O)O)C(=O)N[C@H](C(=O)N[C@@H](CC(C)C)C(=O)N[C@@H](C)C(=O)N[C@@]1(C)CCCC=CCCC[C@@](C)(C(=O)N[C@@H](C)C(=O)N[C@@H](C)C(=O)N[C@@H](CC(C)C)C(=O)N[C@@H](CC(=O)O)C(N)=O)NC(=O)[C@H]([C@@H](C)CC)NC(=O)[C@H](C(C)C)NC(=O)[C@H](CC(C)C)NC1=O)C(C)C [SP-60] (Ac-FIDEEVLA[S5]LVI[S5]AALD-NH2; staple 9-13) | + (<10: +) | > 30 µM
